Laboratory results as given in patent US8017597B2, “Analgesic agent comprising cyclic phosphatidic acid derivative” (Ochanomizu University, priority 2006, dated 2011).
“Also recorded” adds a separate entry of the source. Where two headings read alike, the source gives them in different places.

Experiments:
[1] = test system: anesthetized rats
[2] = test system: DNA polymerase α of eukaryotic cells; conditions: cited from earlier work
[3] = test system: anesthetized cats; conditions: cited from earlier work
[4] = Arterial blood pressure after i.v. cPA administration; format: in vivo, rat
From the text: The right femoral artery was cannulated. Arterial blood pressure was continuously recorded from the intra-arterial cannula using a pressure transducer (TP-400T, Nihon Kohden, Tokyo).

[5] = test system: anesthetized rats; assay: Heart rate increase reaction induced by frequent electrical stimulation of hindlimb afferent nerves, i.v. administration; format: in vivo, rat; conditions: for suppressive effect on heart rate increase: anesthetized rats, i.v., electrical stimulation of lower extremity nerves
From the text: Among (1) “heart rate increase reaction induced by frequent electrical stimulation of hindlimb afferent nerves” employed herein is not induced by weak stimulation intensity (0.2 V) that excites only thick medullated A-fibers, but induced by stimulation intensity (1 V) that is the same or higher than the excitation threshold of thin medullated A-fibers. When the stimulation intensity is further increased (10 V) so as to cause excitation of nonmedullated C fibers, the amplification of the heart rate increase reaction is increased to reach the maximum level (Sato et al, J Auton Nery Syst 4: 231, 1981; Uchida et al, Neurosci Left 269: 161, 1999). Noxious information is transmitted by A-fibers and C fibers. Therefore, such heart rate increase reaction induced by excitation of somatic afferent A-fibers and C fibers can be an indicator for evaluation of analgesic effects.
Blood pressure waveform was collected using a pulse rate tachometer (AT601-O, Nihon Kohden) and the heart rate was recorded continuously.

[6] = 50 μg/Kg i.v., 10 to 15 minutes after administration
[7] = 100 μg/Kg i.v., 10 to 15 minutes after administration
[8] = 200 μg/Kg i.v., 10 to 15 minutes after administration

Sequence of DNA polymerase α of eukaryotic cells (P09884 whole entry): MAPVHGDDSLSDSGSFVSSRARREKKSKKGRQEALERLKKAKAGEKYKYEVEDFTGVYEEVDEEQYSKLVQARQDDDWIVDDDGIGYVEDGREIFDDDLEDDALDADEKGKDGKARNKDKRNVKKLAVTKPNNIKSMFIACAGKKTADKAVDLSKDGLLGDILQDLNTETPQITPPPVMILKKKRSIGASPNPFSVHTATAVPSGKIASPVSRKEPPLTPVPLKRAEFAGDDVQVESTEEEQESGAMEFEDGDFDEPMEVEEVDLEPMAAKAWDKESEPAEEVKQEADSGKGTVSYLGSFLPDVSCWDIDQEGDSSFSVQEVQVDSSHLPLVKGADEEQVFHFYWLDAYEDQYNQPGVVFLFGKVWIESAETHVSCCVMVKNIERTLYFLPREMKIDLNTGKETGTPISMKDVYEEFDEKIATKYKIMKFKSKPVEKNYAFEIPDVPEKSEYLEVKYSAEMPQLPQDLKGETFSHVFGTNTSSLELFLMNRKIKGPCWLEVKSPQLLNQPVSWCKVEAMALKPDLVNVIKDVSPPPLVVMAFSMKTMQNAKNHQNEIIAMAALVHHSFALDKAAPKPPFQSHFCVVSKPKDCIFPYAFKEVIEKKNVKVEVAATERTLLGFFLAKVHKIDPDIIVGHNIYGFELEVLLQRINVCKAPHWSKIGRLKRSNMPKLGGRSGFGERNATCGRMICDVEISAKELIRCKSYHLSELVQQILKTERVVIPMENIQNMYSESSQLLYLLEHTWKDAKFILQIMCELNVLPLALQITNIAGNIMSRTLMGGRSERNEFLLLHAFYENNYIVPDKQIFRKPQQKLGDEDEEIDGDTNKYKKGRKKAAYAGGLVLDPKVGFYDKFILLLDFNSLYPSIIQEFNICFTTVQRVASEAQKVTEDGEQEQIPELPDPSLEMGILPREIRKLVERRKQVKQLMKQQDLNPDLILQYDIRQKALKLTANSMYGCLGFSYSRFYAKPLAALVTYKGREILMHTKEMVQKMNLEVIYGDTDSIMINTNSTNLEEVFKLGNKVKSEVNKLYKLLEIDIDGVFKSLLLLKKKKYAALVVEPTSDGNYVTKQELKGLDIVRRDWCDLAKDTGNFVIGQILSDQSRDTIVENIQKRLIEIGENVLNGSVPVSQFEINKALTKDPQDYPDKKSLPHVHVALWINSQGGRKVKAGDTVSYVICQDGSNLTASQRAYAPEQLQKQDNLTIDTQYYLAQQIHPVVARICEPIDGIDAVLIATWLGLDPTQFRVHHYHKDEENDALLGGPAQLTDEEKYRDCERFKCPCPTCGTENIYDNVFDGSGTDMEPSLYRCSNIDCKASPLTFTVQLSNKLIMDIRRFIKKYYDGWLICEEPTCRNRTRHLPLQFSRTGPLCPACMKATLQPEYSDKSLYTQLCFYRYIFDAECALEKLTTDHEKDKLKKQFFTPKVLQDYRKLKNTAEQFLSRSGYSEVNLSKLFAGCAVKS
Sequence of DNA polymerase α of eukaryotic cells (Q14181 whole entry partner): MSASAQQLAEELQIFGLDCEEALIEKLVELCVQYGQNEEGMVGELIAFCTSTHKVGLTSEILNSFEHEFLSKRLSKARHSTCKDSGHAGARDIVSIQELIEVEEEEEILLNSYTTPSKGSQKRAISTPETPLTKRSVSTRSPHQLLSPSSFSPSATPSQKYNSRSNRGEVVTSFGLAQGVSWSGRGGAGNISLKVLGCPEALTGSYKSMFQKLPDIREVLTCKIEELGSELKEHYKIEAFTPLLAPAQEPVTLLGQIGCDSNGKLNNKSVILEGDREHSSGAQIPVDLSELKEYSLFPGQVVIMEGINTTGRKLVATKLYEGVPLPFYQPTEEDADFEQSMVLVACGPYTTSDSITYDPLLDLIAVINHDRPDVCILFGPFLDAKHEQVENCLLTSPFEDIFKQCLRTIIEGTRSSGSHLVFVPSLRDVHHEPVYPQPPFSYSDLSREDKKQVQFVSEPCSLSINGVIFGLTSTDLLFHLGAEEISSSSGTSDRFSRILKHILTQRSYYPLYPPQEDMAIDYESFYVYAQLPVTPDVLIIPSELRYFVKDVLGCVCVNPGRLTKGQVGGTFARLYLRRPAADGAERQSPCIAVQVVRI
Sequence of DNA polymerase α of eukaryotic cells (P49642 whole entry partner): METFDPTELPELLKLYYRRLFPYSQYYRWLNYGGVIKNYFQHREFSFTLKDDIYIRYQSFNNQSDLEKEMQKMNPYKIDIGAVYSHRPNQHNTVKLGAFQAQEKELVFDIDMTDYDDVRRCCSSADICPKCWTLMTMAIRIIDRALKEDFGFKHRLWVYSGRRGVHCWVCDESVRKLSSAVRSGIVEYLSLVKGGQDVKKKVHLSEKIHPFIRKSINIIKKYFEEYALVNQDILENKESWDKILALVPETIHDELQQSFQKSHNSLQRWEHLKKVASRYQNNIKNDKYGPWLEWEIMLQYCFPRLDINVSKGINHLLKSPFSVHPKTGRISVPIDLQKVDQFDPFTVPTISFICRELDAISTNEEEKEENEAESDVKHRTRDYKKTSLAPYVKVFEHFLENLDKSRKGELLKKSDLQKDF
Sequence of DNA polymerase α of eukaryotic cells (P49643 whole entry partner): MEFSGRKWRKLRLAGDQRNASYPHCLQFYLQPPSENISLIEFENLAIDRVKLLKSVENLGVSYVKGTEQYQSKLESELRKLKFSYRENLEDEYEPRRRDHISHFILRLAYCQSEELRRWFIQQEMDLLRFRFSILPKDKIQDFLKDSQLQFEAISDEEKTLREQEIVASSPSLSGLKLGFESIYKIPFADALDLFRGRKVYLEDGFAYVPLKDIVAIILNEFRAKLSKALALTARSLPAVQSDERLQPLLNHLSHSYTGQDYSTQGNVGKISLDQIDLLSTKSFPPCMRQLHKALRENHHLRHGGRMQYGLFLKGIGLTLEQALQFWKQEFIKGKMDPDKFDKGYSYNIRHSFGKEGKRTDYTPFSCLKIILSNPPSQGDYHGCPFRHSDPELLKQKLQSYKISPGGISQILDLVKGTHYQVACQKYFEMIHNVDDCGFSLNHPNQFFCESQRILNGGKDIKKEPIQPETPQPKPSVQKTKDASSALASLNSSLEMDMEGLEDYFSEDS

With `CCCCCC/C=C\CCCCCCCC(=O)OCC1CCP(=O)(O)O1` (stereo not shown) [Pal-3 ccPA, palmitoleoyl 3 carba cPA] the “decrease in depolarization level of C reflex” value [1, 6] was “approximately 30%”, the “decrease in depolarization level of C reflex” value [1, 7] was “approximately 50%” and the “decrease in depolarization level of C reflex” value [1, 8] was “approximately 60%”. For the same compound, the “change in discharge/depolarization level of cardiac nerves, particularly C reflex” value (“change in discharge/depolarization level” below) ([1]; anesthetized rats, i.v.) was “significant decrease” and the “degree of decrease in C reflex depolarization compared with 2 carba derivatives” value ([1]; i.v., anesthetized rats) was “somewhat lower”.
For `CCCCCC[C@@H]1C[C@@H]1CCCCCCCC(=O)OC[C@@H]1COP(=O)(O)O1` [PHYLPA], the “effect on activity of DNA polymerase α” value [2] is listed as “suppresses”.
For `CN1CC[C@]23c4c5ccc(O)c4O[C@H]2[C@@H](O)C=C[C@H]3[C@H]1C5` [morphine], the “effect on C-reflex potential” value [3] is listed as “selectively suppresses C-reflex potential alone”.
With `CCCCCCCCCCCCCCCC(=O)OCC1COP(=O)(O)O1` (stereo not shown) [Pal-cPA] the blood pressure ([4]; after dose of 2 mg/Kg body weight i.v.) was 130 mmHg, the blood pressure ([4]; dose 300 μg/Kg body weight i.v., brief increase) was “around 100 mmHg” and the blood pressure ([4]; dose 2 mg/Kg i.v., thereafter up to 30 minutes after administration) was “around 130 mmHg”. The “suppressive effect on heart rate increase” value [5] was “no consistent tendency could be confirmed; also recorded: not significant”.
With `CCCCCC/C=C\CCCCCCCC(=O)OCC1COP(=O)(O)C1` (stereo not shown) [Pal-2 ccPA, palmitoleoyl 2 carba cPA] the “decrease in depolarization level of C reflex” value [1, 6] was at least 30%, the “decrease in depolarization level of C reflex” value [1, 7] was “approximately 60%” and the “decrease in depolarization level of C reflex” value [1, 8] was “approximately 70%”. The “decrease in depolarization level of C reflex” value ([1]; 500 μg/Kg i.v., 10 to 15 minutes after administration) was “approximately 80%” and the “change in discharge/depolarization level” value ([1]; anesthetized rats, i.v.) was “significant decrease”.
With `CCCCCCCC/C=C\CCCCCCCC(=O)OCC1COP(=O)(O)O1` (stereo not shown) [Ole-cPA, 1-oleoyl cyclic phosphatidic acid] the “effects of administration on blood pressure” value ([4]; anesthetized rats, i.v.) was “not observed”, the blood pressure ([4]; dose 2 mg/Kg body weight or less i.v.) was about 90 mmHg and the “decrease in depolarization level of C reflex” value ([1]; 2 mg/Kg i.v.) was “approximately 50%”. For the same compound, the “changes in discharge level of Aδ reflex” value ([1]; after administration, compared with C reflex) was “inconsistent”, the “change in discharge/depolarization level” value ([1]; anesthetized rats, i.v.) was “decreased” and the “decrease in discharge level of C reflex” value ([1]; any concentration, 10 to 15 minutes after administration) was “approximately 1 mV”. For the same compound, the “decrease in discharge level of C reflex” value ([1]; any concentration, 10 to 15 minutes after administration, relative to before administration) was “up to 40%”, the “decrease in discharge level of C reflex” value ([1]; dose 2 mg/Kg, 30 minutes after administration, compared with before administration) was “approximately 20%” and the “suppressive effect on heart rate increase” value [5] was “significantly suppressed; also recorded: significantly observed”. For the same compound, the “heart rate increase compared with control” value ([5]; dose 5 mg/Kg body weight i.v.) was “a half of or lower than that of the control”, the “suppressive effect on heart rate increase after 20 minutes” value ([5]; dose 5 mg/Kg i.v., after 20 minutes) was “significant suppressive effect” and the “duration of the suppressive effect on heart rate increase” value ([5]; dose higher than 1 mg/Kg body weight i.v.) was at least 20 min.
